# Experimental data reported in publication PMC8659164, “Effect of S–Se Bioisosteric Exchange on Affinity and Intrinsic Efficacy of Novel N-acylhydrazone Derivatives at the Adenosine A2A Receptor” (Molecules, 2021).
# Target: T1, adenosine A2A receptor (A2AR) (Rattus norvegicus, UniProt P30543)
# T1 construct: gene Adora2a; native full-length receptor in striatum membrane preparation of adult male Wistar rats
# Experiment: [3H]-ZM241385 competition, rat striatum membranes
# Type: binding
# Conditions: 50 mM MgCl2 (medium I), 0.5 nM [3H]-ZM241385, pH 7.4, 25 °C, 60 min; parentheses = 95% CI
# Description: [3H]-ZM241385 competition, rat striatum membranes on adenosine A2A receptor (A2AR)
# T1 sequence (P30543 whole entry): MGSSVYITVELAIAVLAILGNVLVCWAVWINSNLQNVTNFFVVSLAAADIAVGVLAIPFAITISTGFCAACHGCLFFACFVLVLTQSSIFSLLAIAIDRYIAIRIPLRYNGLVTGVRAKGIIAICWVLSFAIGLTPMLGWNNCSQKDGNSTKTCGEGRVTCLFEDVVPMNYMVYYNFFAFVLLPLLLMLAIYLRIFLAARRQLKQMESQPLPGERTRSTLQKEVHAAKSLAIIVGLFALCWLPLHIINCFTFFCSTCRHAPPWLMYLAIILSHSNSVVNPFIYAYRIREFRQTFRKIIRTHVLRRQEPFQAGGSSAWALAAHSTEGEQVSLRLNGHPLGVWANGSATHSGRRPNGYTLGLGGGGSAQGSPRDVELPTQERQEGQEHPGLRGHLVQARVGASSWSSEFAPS
row,Compound,IC50
1,"COc1cccc(C=NNC(=O)c2ccc[se]2)c1 [compound 14, N’-(3-Methoxybenzylidene)selenophene-2-ca-rbohydrazide]",16.6 µM
2,"CN(/N=C/c1cccs1)C(=O)c1ccc2c(c1)OCO2 [compound 2, LASSBio-785]",47.9 µM
3,"COc1cccc(C(=O)N(C)/N=C/c2cccs2)c1 [compound 7, 3-Methoxy-N-methyl-N’-(thiophen-2-yl-methylene)benzohydrazide]",22.3 µM
4,"O=C(N/N=C/c1ccc[se]1)c1ccc2c(c1)OCO2 [compound 3, N’-(Selenophen-2-yl-methylene)benzo[d][1,3] dioxole-5-carbohydrazide]",20.9 µM
5,"CN(/N=C/c1ccc[se]1)C(=O)c1ccc2c(c1)OCO2 [compound 6, N-Methyl-N’-(selenophen-2-yl-methylene) benzo[d][1,3]dioxole-5-carbohydrazide]",52.9 µM
6,"COc1cccc(C(=O)N/N=C/c2cccs2)c1 [compound 4, 3-Methoxy-N’-(thiophen-2-yl-methylene)benzohydrazide]",10.8 µM
7,"O=C(N/N=C/c1cccs1)c1ccc2c(c1)OCO2 [compound 1, LASSBio-294]",38.9 µM
8,"COc1cccc(C(=O)N/N=C/c2ccc[se]2)c1 [compound 5, 3-Methoxy-N’-(selenophen-2-yl-methylene)benzohydrazide]",10.4 µM
9,"COc1cccc(C(=O)N(C)/N=C/c2ccc[se]2)c1 [compound 8, LASSBio-2199]",15.4 µM
10,"COc1cccc(C=NNC(=O)c2cccs2)c1 [compound 13, N’-(3-Methoxybenzylidene)thiophene-2-carbo-hydrazide]",27.1 µM
